From patent US9084734B2, “Peptide personal care compositions and methods for their use” (Danisco US Inc., priority 2005, dated 2015)
Bridge positions count the residues as written; N and C are the ends. Peptide text beside a SMILES is read from it.

Key:
[1] = system: human umbilical vein endothelial cells (HUVEC); assay: In vitro HUVEC proliferation assay (MTS) for hVEGF inhibitory peptides; type: cell-based; conditions: 10 ng/ml VEGF, 48 hrs
Procedure: FIG. 12 provides a graph showing HUVEC results for designated peptides.
In this Example, experiments conducted to determine the anti-proliferative activity of anti-VEG peptides are described. The antiproliferative activity of VEGF inhibitory peptides was determined using human umbilical vein endothelial cells (HUVEC) as follows. An early passage (less than six) of HUVEC was seeded in 96-well plates at 5000 cells per well and starved for 18 hrs in 200 μl EBM medium (Cambrex) without growth factors and supplemented with 0.5% FBS, at 37° C. with 5% CO2. The medium was replaced with 180 μl of growth medium containing EBM medium with 5% fetal bovine serum and 1% DMSO. Then, 20 μl of VEGF preincubated for one hour with varying peptide concentrations (the final DMSO concentration of all the wells was 1%) were added to the wells for a final VEGF concentration of 10 ng/ml. Human VEGF antibody (R & D Systems) was used as a positive control. Cells with 0.31 to 20 ng/ml concentrations of VEGF alone in the growth medium were used to construct a standard growth curve. The cells were further incubated for 48 hrs, and the cell proliferation was measured using an MTS assay (CellTiter 96 Aqueous One Solution Cell Proliferation Assay Kit; Promega). Then, 40 μl of the MTS tetrazolium solution was added to each well and after 3 and 4 hours incubation, the plates were read at 490 nm. […]

human skin = assay: Repeat insult patch testing (RIPT) on human skin; type: in vivo; conditions: 0.5% (w/v) in deionized water/butylene glycol; approximately 0.2 mL; 200 human volunteers
Procedure: In this Example, experiments conducted to determine the patch test result for anti-VEGF peptides are described. Samples of the aVEGF peptide CK37281 dosed at 0.5% (w/v) were formulated in a base formulation containing deionized water/butylene glycol. Approximately 0.2 mL of the formulation was applied to 200 human volunteers in a repeated insult patch test according to procedures designed by Clinical Research Laboratories, Inc. (Piscataway, N.J.).

Human VEGF165 = molecular target: T1, Human VEGF165 (Homo sapiens, UniProt P15692); assay: BIAcore binding analysis of VEGF-binding peptides (surface plasmon resonance); conditions: two state reaction model with conformation change; 25° C.
T1 construct: purchased Biosource
T1 sequence (P15692 27-191 isoform P15692-4): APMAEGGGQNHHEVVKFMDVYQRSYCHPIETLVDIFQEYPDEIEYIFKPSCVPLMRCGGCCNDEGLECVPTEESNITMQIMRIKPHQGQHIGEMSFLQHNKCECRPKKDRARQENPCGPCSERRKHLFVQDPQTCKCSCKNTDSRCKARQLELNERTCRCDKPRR
Procedure: FIG. 3 provides results of a BIACORE binding analysis of VEGF binding peptides. Binding curves were obtained as described in the Examples. Data were fit to a two state reaction model with conformation change: Analyte (A) binds to ligand (B) to form complex AB.
In this Example, experiments conducted to assess the affinities of the peptides for VEGF are described. Affinities of the peptides for VEGF were measured using a BIAcore™-3000 surface plasmon resonance system (Biacore). A CM5 sensor chip was conditioned with 50 mM NaOH, 0.1% HCl, 0.1% SDS, and 0.08% H3PO4, and activated for covalent coupling of VEGF using N-ethyl-N′-(3-dimethylaminopropyl)-carbodiimide hydrochloride (EDC) and N-hydroxysuccinimide (NHS) according to the supplier's instructions (Biacore). Human VEGF165 (Biosource) was diluted to 5 μg/ml in 20 mM sodium acetate, pH 4.8 and injected at a flow rate of 2 μl/min to achieve approximately 1000 to 6000 response units (RU) of coupled protein. TNF-alpha (human TNF-alpha, Biosource, Int., Camarillo, Calif.) was similarly coupled to the CM5 sensor chip to approximately 850 to 3500 RU in the reference lane. A solution of 1 M ethanolamine was injected as a blocking agent. In some experiments, an additional solution of EDC and NHS were injected to improve baseline stability and a solution of 1 M ethanolamine injected as a blocking agent. The reference lane was activated with EDC and NHS and blocked with ethanolamine.
Peptides were synthesized using standard FMOC chemistry, purified by reverse phase HPLC to >95% purity (SynPep), and stored at 10 mg/mL in DMSO. For kinetic measurements, twofold serial diluted peptides in HBS-EP buffer, 0.01 M HEPES pH 7.4, 0.15 M NaCl, 3 mM EDTA, 0.005% Surfactant P20 (Biacore), were injected at 25° C. at a flow rate of 20 μL/min. Two-fold serial diluted DMSO samples and buffer samples were also injected for background subtraction. Kinetic parameters were calculated using BIAevaluation 3.1 software.

CC(C)C[C@@H]1NC(=O)[C@H](CC(N)=O)NC(=O)[C@H](Cc2ccc(O)cc2)NC(=O)[C@@H](NC(=O)[C@H](C)N)CSSC[C@@H](C(=O)NCC(=O)NCC(=O)NCC(=O)O)NC(=O)[C@H]([C@@H](C)O)NC(=O)[C@H](Cc2c[nH]c3ccccc23)NC(=O)CNC(=O)[C@H](Cc2ccc(O)cc2)NC1=O [CK37281, YNLYGWT]
IC50 [1]: micromolar range | dermal irritation or sensitization (human skin): no dermal irritation or sensitization | ka2 (Human VEGF165): 1.5 e-3 s^−1 | kd1 (Human VEGF165): 0.0122 s⁻¹

CC(C)C[C@@H]1NC(=O)[C@H](CC(N)=O)NC(=O)[C@@H](NC(=O)[C@H](C)N)CSSC[C@@H](C(=O)NCC(=O)NCC(=O)NCC(=O)O)NC(=O)[C@H](Cc2c[nH]c3ccccc23)NC(=O)[C@H](Cc2ccccc2)NC(=O)[C@H](Cc2c[nH]cn2)NC(=O)[C@@H]2CCCN2C(=O)[C@H](Cc2c[nH]c3ccccc23)NC1=O [CK37283] (H-ACNLWPHFWCGGG-OH; disulfide 2-10; N-terminus and C-terminus assumed)
IC50 [1]: micromolar range | Kd (Human VEGF165): 4.9 µM | ka2 (Human VEGF165): 6.34 e-3 s^−1 | kd1 (Human VEGF165): 0.318 s⁻¹
